# Assay results taken from US20230058316A1, “PEGYLATED IGE-DEPENDENT HISTAMINE-RELEASING FACTOR (HRF)-BINDING PEPTIDE AND USE THEREOF” (EWHA UNIVERSITY - INDUSTRY COLLABORATION FOUNDATION, priority 2020, published 2023).
# Where no end group is shown, it is not given here.
# Assays:
# [1] = Metabolic stability in mouse liver microsomes; conditions: NADPH, 37° C., 30 minutes
# Protocol: (§4) Upon completion of the reaction, cold acetonitrile containing internal standard was added, and then deproteinization was carried out. The reactant was centrifuged at 4° C., 4000 rpm for 15 minutes, and the supernatant was analyzed by LC-MS/MS. The system was verified with buspirone, a reference material.
# [2] = Metabolic stability in human liver microsomes; conditions: pH 7.4
# Protocol: as §4
# [3] = biological target: T1, recombinant HRF (Homo sapiens, UniProt P13693); experiment: Inhibition of IL-8 secretion by HRF in BEAS-2B cells; format: cell-based; conditions: FIG. 7; for inhibition of IL-8 secretion by HRF: 0.75 nM and 7.5 nM with 75 nM recombinant HRF, 24 hours
# T1 sequence (P13693 1-172): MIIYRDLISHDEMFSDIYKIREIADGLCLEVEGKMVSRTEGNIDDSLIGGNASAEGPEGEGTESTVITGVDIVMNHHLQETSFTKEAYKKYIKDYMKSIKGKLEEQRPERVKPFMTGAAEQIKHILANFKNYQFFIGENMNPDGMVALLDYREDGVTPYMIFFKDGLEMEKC
# Protocol: The PEG (5000)-dTBP2 prepared in Preparative Example 4, Example 1, and Example 2 was diluted with 1% penicillin streptomycin/DMEM for each concentration (0, 0.75 nM, 7.5 nM), incubated with 75 nM recombinant HRF at room temperature for 15 minutes, and then treated to BEAS-2B cells grown to about 70% on a 48 well plate. The cells were cultured in a 37° C., 5% CO2 incubator for 24 hours, and the supernatant was obtained. Then, the released IL-8 was quantified by enzyme immunosorbent detection (Biolegend). The IL-8 enzyme immunosorbent detection was performed according to the protocol of Biolegend Human IL-8 ELISA kit with pre coated plates (431508). 300 μl of wash buffer was added to each well of the plate pre-coated with the IL-8 antibody, and the plate was washed a total of 4 times. Then, 50 μl of the supernatant was added to each well of the plate and left at room temperature for 2 hours. After 2 hours, the supernatant in the plate was removed, and 300 μl of wash buffer was added to each well of the plate. The plate was washed a total of 4 times, and then 100 μl of a detection antibody solution was added to each well of the plate and left at room temperature for 1 hour. Thereafter, 300 μl of wash buffer was added to each well of the plate, and the plate was washed a total of 4 times. Then, 100 μl of Avidin-HRP A solution was added to each well of the plate and left at room temperature for 30 minutes. Finally, 300 μl of wash buffer was added to each well of the plate, and after washing the plate 5 times, 100 μl of substrate solution F was added to each well of the plate and left at room temperature in a dark room. 100 μl of a stop solution was additionally added to each well of the plate, and absorbance was measured at 450 nm and 570 nm. The wash buffer, detection antibody solution, avidin HRP A solution, substrate solution F, and stop solution were all used as reagents included in a kit (431508, Biolegend).
# [4] = system: eosinophils in bronchoalveolar lavage fluid; experiment: Eosinophil increase in bronchoalveolar lavage fluid, ovalbumin-induced bronchial asthma and rhinitis mouse model; format: in vivo; conditions: 1 mg/kg IP, 8 times daily for 8 days, FIG. 9
# Protocol: (§1) A bronchial asthma and rhinitis animal model was prepared by the following method. An ovalbumin solution was prepared by dissolving ovalbumin in an aluminum hydroxide solution (1 mg/ml) 28 and 14 days before the start of inducing bronchial asthma and rhinitis, and 200 μl of the solution was intraperitoneally injected into each mouse for sensitization. After 14 days of final sensitization, 20 μl of saline/PBS (normal control; NC) or 20 μl of 10 mg/mL ovalbumin solution (positive control; PC) was instilled into the nasal cavity of each lightly anesthetized mouse 4 times every other day for 8 days to induce bronchial asthma and rhinitis.
# After anesthetizing the mouse by injecting a mixture of zoletil (250 mg/kg) and rompun (50 mg/kg) intraperitoneally, a 20-gauge catheter was inserted into the trachea by puncturing the trachea with a knife, and 0.6 mL of PBS at a time was injected-collected three times, and the collection rate was adjusted to 80%. The collected bronchoalveolar lavage fluid was centrifuged at 4° C., 3000 rpm for 10 minutes, and the cell precipitate was resuspended in 0.1 mL of PBS. 20 μL of the suspension was analyzed for the composition of blood cells using a fully automatic hematology analyzer (HEMAVET 950 FS, Drew Scientific, Inc.).
# [5] = system: IL-5; experiment: IL-5 secretion in bronchoalveolar lavage fluid, ovalbumin-induced bronchial asthma and rhinitis mouse model; format: in vivo; conditions: 1 mg/kg IP
# Protocol: as §1
# After the end of the experiment, the amount of IL-5 in the supernatant obtained by centrifuging bronchoalveolar lavage fluid was measured and quantified by enzyme immunosorbent detection using mouse IL-5 ELISA kit (Biolegend, USA).
# (§2) Next, in order to confirm whether there is an effect of inhibiting IL-5 secretion even when administered in a small number of times, the dTBP2 of Preparative Example 4 and Example 3 was administered to the mouse model of Example 4-1 through intraperitoneal injection once in 4 days for a total of 2 times for 8 days inducing bronchial asthma and rhinitis. The amount of IL-5 was measured and quantified by the enzyme immunosorbent detection method in the same manner.
# (§3) In addition, the dTBP2 of Preparative Example 4 and Example 3 was administered to the mouse model of Example 4-1 through intraperitoneal injection once on the 1st day of 8 days inducing bronchial asthma and rhinitis. The amount of IL-5 was measured and quantified by the enzyme immunosorbent detection method in the same manner.
# The amount of IL-5 was measured and quantified by the enzyme immunosorbent detection method in the same manner.
# [6] = system: IL-4; experiment: IL-4 secretion in bronchoalveolar lavage fluid, ovalbumin-induced bronchial asthma and rhinitis mouse model; format: in vivo; conditions: 1 mg/kg IP
# Protocol: as §1
# After the end of the experiment, the amount of IL-4 in the supernatant obtained by centrifuging bronchoalveolar lavage fluid was measured and quantified by enzyme immunosorbent detection using mouse IL-4 ELISA kit (Biolegend, USA).
# as §2, with “IL-4” for “IL-5”
# as §3, with “IL-4” for “IL-5”
# The amount of IL-4 was measured and quantified by the enzyme immunosorbent detection method in the same manner.
# [7] = system: IL-13; experiment: IL-13 secretion in bronchoalveolar lavage fluid, ovalbumin-induced bronchial asthma and rhinitis mouse model; format: in vivo; conditions: 1 mg/kg IP, 8 times daily for 8 days, FIG. 18
# Protocol: as §1
# After the end of the experiment, the amount of IL-13 in the supernatant obtained by centrifuging bronchoalveolar lavage fluid was measured and quantified by enzyme immunosorbent detection using mouse IL-13 ELISA kit (R&D system, USA).
# as §2, with “IL-13” for “IL-5”
# as §3, with “IL-13” for “IL-5”
# The amount of IL-13 was measured and quantified by the enzyme immunosorbent detection method in the same manner.
# [8] = system: ovalbumin-specific IgE; experiment: Ovalbumin-specific IgE secretion in mouse plasma, ovalbumin-induced bronchial asthma and rhinitis mouse model; format: in vivo; conditions: plasma, 1 mg/kg IP, 8 times daily for 8 days
# Protocol: as §1
# Ovalbumin is an allergy-causing substance mainly contained in egg whites. […] After completion of the experiment, the mouse was anesthetized by injecting a mixture of zoletil (250 mg/kg) and rompun (50 mg/kg) intraperitoneally, and the chest was opened. 0.8 mL blood was collected by puncture of the heart with a 26 gauge 1 mL syringe coated with heparin. The collected blood was centrifuged at 4° C., 3000 rpm for 10 minutes to obtain plasma components. The amount of ovalbumin-specific IgE in the blood serum obtained through the above process was measured and quantified by enzyme immunosorbent detection method using mouse OVA specific IgE kit (Biolegend, USA).
# as §2, with “inhibiting ovalbumin-specific IgE” for “inhibiting IL-5”, “secretion in plasma” for “secretion”, “of ovalbumin-specific IgE secretion” for “of IL-5”
# as §3, with “ovalbumin-specific IgE secretion” for “IL-5”
# The amount of ovalbumin-specific IgE secretion was measured and quantified by the enzyme immunosorbent detection method in the same manner.
# [9] = Pharmacokinetic analysis in ICR mice; format: in vivo; conditions: mouse, plasma, IV, 10 mg/kg
# Protocol: The dTBP2 of Preparative Examples 4 and Example 3 was added to a solution prepared in DMSO:PEG400:DW=5:55:40, and this was administered at the concentration of 5 mL/kg. Blood samples were taken at 0.083, 0.25, 0.5, 1, 2, 4, and 8 hours post injection. The blood was centrifuged at 4° C., 3000 rpm for 10 minutes, to which cold acetonitrile containing internal standard was added in an amount 4 times the plasma component, and then deproteinization was carried out. After centrifugation again at 4° C., 13000 rpm for 10 minutes, the supernatant was collected and analyzed by Agilent 6460 LC-MS/MS. Pharmacokinetic analysis was performed with Phoenix WinNonlin (Pharsight ver 6.4, USA) using a non-compartmental analysis model.
compound,measurement,setting,value
"O=C1CC2(CCCC2)CC(=O)N1CCCCN1CCN(c2ncccn2)CC1 [Buspirone, buspirone]",Mouse (%) remaining after reaction,[1],0.10%
same,remaining at 0.5 h,[2],6.15%
Example 2: dTBP2 (WYVYPSM) conjugated at the C-terminal with methoxy polyethylene glycol hydrazide (5 kDa) (WYVYPSM-{mPEG hydrazide 5 kDa}),inhibition of IL-8 secretion by HRF,[3],effective
Methoxy polyethylene glycol propionaldehyde (5000) [Preparative Example 1],inhibition of IL-8 secretion by HRF,[3],effective
Example 1: dTBP2 (WYVYPSM) conjugated at the N-terminal with methoxy polyethylene glycol propionaldehyde (5 kDa) ({mPEG propionaldehyde 5 kDa}-WYVYPSM),inhibition of IL-8 secretion by HRF,[3],effective
same,"inhibitory effect on the IL-8 secretion by HRF, comparison among the tested peptides",[3],best
"WYVYPSM [Preparative Example 4, WYVYPSM, reference compound]",reduction of increased eosinophils vs positive control,[4],about 40%
same,reduction of IL-5 secretion,"[5]; 8 times daily for 8 days, FIG. 10",about 25%
same,IL-5 secretion inhibitory effect,"[5]; once on the 5th day of 8 days, FIG. 13",weak
same,reduction of IL-4 secretion,"[6]; 8 times daily for 8 days, FIG. 14",about 50%
same,IL-4 secretion inhibitory effect,"[6]; once on the 5th day of 8 days, FIG. 17",weak
same,reduction of IL-13 secretion,[7],about 30%
same,inhibiting ovalbumin-specific IgE secretion in plasma (in words),[8],very effective
same,reduction of ovalbumin-specific IgE secretion,[8]; FIG. 22,about 50%
same,AUC(0-inf),[9],30 ng·h/mL
same,AUC(0-t),[9],20 ng·h/mL
same,half-life,[9]; read-out: T1/2 (half life) (converted),1.91 h
same,Vd,[9]; read-out: Vss (steady-state volume of distribution),783 L/kg
